How the values were obtained:
[1] = system: mice with intrafemoral Lewis lung carcinoma (LLC); experiment: Open field test in LLC bone cancer model; assay type: in vivo, mouse; conditions: d14 after tumor inoculation
Experimental: Behavior tests. All the behavioral tests were conducted in a blinded manner and performed during between the hours of 9:00-16:00. Animals were habituated in a light and humidity controlled testing environment for at least 2 days prior to baseline testing. For Von Frey testing, mice were confined to individual 5×5 cm boxes placed on an elevated wire grid. A blinded experimenter stimulated their hindpaws using a series of von Frey filaments with logarithmically increasing stiffness (0.02-2.56 g, Stoelting). Each filament was applied perpendicularly to the central plantar surface. The 50% paw withdrawal threshold was determined using Dixon's up-down method. In addition, we also measured paw withdrawal frequency to repeated stimulation (10 times, with ˜1-2 minutes between each stimulation) using a subthreshold 0.16 g von Frey filament, which is a more sensitive method to detect mechanical allodynia. […] To measure locomotor function, we performed open field testing in which mice were placed in the center of a 45×45 cm chamber and locomotor activity was recorded by an overhead webcam connected to a laptop computer, and animals' movements were automatically tracked for 30 minutes using ANY-Maze. The total distance traveled and mean speed during the 30-minute period were analyzed.

naïve mice = experiment: Naloxone reversal of antinociception; assay type: in vivo, mouse; conditions: naloxone 10 mg/kg i.p.; morphine 2 nmol i.t., DMXAA or ADU-S100 35 nmol i.t.
Experimental: Following naloxone delivery, mice were tested within 15 minutes. For the experiments testing whether mice developed tolerance to the effects of STING agonists, vehicle or DMXAA (35 nmol) were administered via i.t. injection. Naïve mice received five single injections at D0, D3, D6, D9, and D12, with testing each day 4 h after injection. SNI mice received injections on two consecutive days beginning on D7 (D7 and D8) and every 48 h afterwards following the conclusion of sensory testing (D10, D12, D14, D16, and D18). Spinal cords (L4-L5) were collected for analysis of glial cell activation at D21 following SNI.

tumor-bearing femora = experiment: Bone fractures of tumor-bearing femora on d17 after LLC inoculation; assay type: in vivo, mouse; conditions: vehicle 87.5%
Experimental: Development and progression of cancer-induced osteolytic bone destruction frequently leads to bone fracture, which is an important component of SREs in patients with bone metastasis and is associated with decreased overall survival. On d17 after LLC inoculation, mice were euthanized and the tumor bearing femora were collected and the distal tumor-bearing femur where bone destruction occurs was analyzed.

mice with CIPN or BCP = experiment: Conditioned place preference (CPP) assay in chronic pain (CIPN and BCP) models; assay type: in vivo, mouse; conditions: for conditioned place preference (ongoing pain): mice with CIPN or BCP, i.t.; for conditioned place preference, single pairing: mice with neuropathic pain (CIPN), i.t. 35 nmol
Experimental: All mice underwent 3 d of preconditioning habituation in a temperature- and humidity-controlled room under low-light conditions between 08:00-16:00 in a two compartment CPP chamber (Med Associates Inc.). The two compartments differed by both visual and tactile cues. On the 4th day, animal behavior was video-recorded using a webcam connected to a laptop computer, and animal movement was automatically tracked for 15 minutes using the ANY-Maze software (Stoelting). […] On the conditioning day(s) (day 5 for single trial; day 5-7 for repeated trials), two pairing sessions were performed, with vehicle pairing in the AM session and drug treatment (e.g., vehicle or drug) in the PM session, separated by 4 h. In the AM session, mice always received vehicle (10 μl saline, delivered via i.t. injection under isoflurane anesthesia) and were immediately placed in their preferred CPP chamber for 2 h. […] 24 h after the completion of the pairing experiments, mice were placed in the CPP test box with access to both chambers and behavior was recorded for 15 minutes and analyzed using the ANY-Maze software for chamber preference. CPP score was calculated as the inverse of the time spent in the preferred chamber according to: [post-preference (sec)—pre-preference (sec)]. Vehicle served as a negative control for these experiments, while morphine (three trials/naïve mice) or clonidine (single trial/ongoing pain) served as positive controls.

RAW 264.7 cells = experiment: In vitro osteoclastogenesis, RANKL-treated RAW 264.7 cells, TRAP staining; assay type: cell-based, mouse; conditions: RANKL 35 ng/ml, 6 days, escalating dose
Experimental: (§1) In vitro induction of osteoclastogenesis and TRAP staining. For in vitro drug treatment, the RAW 264.7 cells were incubated with 35 ng/ml RANKL for six days. Isolated bone marrow cells were cultured overnight in α-MEM media containing 10% fetal bovine serum and 1% antibiotic-antimycotic solution. The suspended cells were collected and incubated with 20 ng/ml MCSF for 3 days to obtain bone marrow-derived macrophage (BMDM). The attached cells were further activated by 35 ng/ml RANKL and 20 ng/ml MCSF. Drug treatment was performed in tandem with RANKL. Culture medium and co-cultured reagents were changed every 3 days. After 6 or 7 days of incubation, the cells were fixed by 4% PFA and stained with warm TRAP staining solution (TRAP kit, Sigma-Aldrich, SLBW4002) for 10-30 min at 37° C.

IFN-β = IFN-β ELISA in serum and bone marrow lysate after i.p. STING agonist, LLC model; assay type: in vivo, mouse; conditions: for serum IFN-β levels: 4 h after i.p. 20 mg/kg; for IFN-β in bone marrow (BM) lysate: 4 h after i.p., d3
Experimental: (§2) ELISA. Mouse high-sensitivity IFN-α ELISA kit (42115-1) and IFN-β ELISA kit (42410-1) were purchased from PBL Assay Science. Mouse CTX-I ELISA kit (AC-06F1) and mouse PINP ELISA kit (AC-33F1) were purchased from Immunodiagnostic Systems. ELISA was performed using culture medium, serum, and bone marrow lysates. Serum was obtained from whole blood that was collected from a submandibular vein via facial vein puncture, coagulated for 30 minutes at room temperature, followed by centrifugation (2,000 ×g for 10 min, 4° C.) and collection of the supernatant (serum). Bone marrow was homogenized in a lysis buffer containing protease inhibitors at 4° C. for 30 minutes. ELISA was conducted in accordance with the manufacturer's instructions. A standard curve was performed for each experiment.

IFN-α = IFN-α ELISA on BMDM culture medium; assay type: cell-based, mouse; conditions: 24 h after incubation
Experimental: as §2
as §1, with “After 6 or 7 days of incubation, the cells were fixed by 4% PFA and stained with warm TRAP staining solution (TRAP kit, Sigma-Aldrich, SLBW4002) for 10-30 min at 37° C.” left out

CTX-I = experiment: Serum CTX-I ELISA; assay type: in vivo, mouse; conditions: d17
Experimental: as §2

| Structure (SMILES) | open field distance and speed of movement [1] | effect of naloxone on the antinociception of the substance (naïve mice) | mice with distal bone fractures (tumor-bearing femora) | conditioned place preference (ongoing pain) (mice with CIPN or BCP) | conditioned place preference, single pairing (mice with CIPN or BCP) | osteoclast differentiation (RAW 264.7 cells) | serum IFN-β levels (IFN-β) | IFN-β in bone marrow (BM) lysate (IFN-β) | IFN-α levels in the culture medium (IFN-α) | serum CTX-I levels (CTX-I) |
| --- | --- | --- | --- | --- | --- | --- | --- | --- | --- | --- |
| Nc1ncnc2c1ncn2[C@@H]1O[C@@H]2COP(=O)([S-])O[C@@H]3[C@H](O)[C@@H](COP([O-])(=S)O[C@H]2[C@H]1O)O[C@H]3n1cnc2c(N)ncnc21.[Na+].[Na+] (stereo partly drawn) [ADU-S100, (2′-5′)-[P(R)]-5′-O-[(R)-hydroxymercaptophosphinyl]-P-thioadenylyl-adenosine cyclic dinucleotide] | increased overall distance of movement and increased speed of movement | had no effect | 0% | induced CPP in both models | induced comparable CPP as clonidine | dose dependently inhibited osteoclast differentiation | dramatically upregulated | sharply increased | drastic increase in IFN-α and IFN-β levels |  |
| Cc1ccc2c(=O)c3cccc(CC(=O)O)c3oc2c1C [DMXAA, 2-(5,6-dimethyl-9-oxo-9H-xanthen-4-yl)acetic acid] | greater overall distance of movement and increased speed of movement | had no effect | 12.5% | induced CPP in both models | induced comparable CPP as clonidine | dose dependently inhibited osteoclast differentiation | dramatically upregulated | sharply increased | drastic increase in IFN-α and IFN-β levels | could effectively reduce CTX-I levels on d17 |

Reference: US20230158057A1, “COMPOSITIONS AND METHODS FOR THE TREATMENT OF PAIN” (Duke University, priority 2020, published 2023)
